Reference: patent US7169890B2, “Process for the production of ramoplanin-like amide derivatives” (Vicuron Pharmaceuticals Inc., priority 2002, dated 2007)

Columns and labels:
[1] = test system: 3797 Staph. aureus clin. isolate VISA Met-R; assay: MIC, broth microdilution NCCLS (isolated compounds or reaction solutions); assay type: cell-based, Staphylococcus aureus; settings: for MIC: 3797 Staph. aureus clin. isolate VISA Met-R, isolated compounds
Description: (§1) The antimicrobial activity in vitro of the compounds obtained according to the process of this invention was evaluated against a panel of clinical isolates of methicillin-sensitive, methicillin-resistant and vancomycin-intermedie Staphylococcus aureus, Van-S and Van-A Enterococcus faecium and faecalis, Streptococcus pyogenes, Escherichiae coli and Candida albicans.
(§2) MICs were performed using the broth microdilution methodology following the NCCLS procedure (NCCLS Document M7-A4 Vol.17 No.2 January 1997) in presence of 0.02% albumine bovine serum with inocula of approximately 5×10^5 cfu/mL. The media employed included cation-adjusted Mueller-Hinton (MH) broth (Difco Laboratories, Detroit, Mich., USA) supplemented or not with 30% (v/v) bovine serum. Tests were read after 24 h incubation at 37° C.
(§3) A further set of experiments for measuring the antimicrobial activity in vitro of a series of compounds of formula (Ia) in comparison with the known compound 1 was carried out directly on the solutions deriving from the reaction of the starting acid of formula (IV) with the deacyl ramoplanin of formula (III) according to the method A described in the Examples.
(§4) The reaction solutions (resulting from the addition of 1M hydrochloric acid as described in Method A) were diluted at 6000 mcg/ml by adding 0.1% peptone Difco Laboratories, (Detroit, Mich., USA) plus 0.9% NaCl (PBS). The resulting solutions were diluted with water at the desired concentration to perform the test that was then carried out in the same way described for the isolated compounds reported in Table 2.

[2] = test system: 3798 Staph. aureus clin. isolate VISA; assay: as above; assay type: cell-based, Staphylococcus aureus; settings: for MIC: 3798 Staph. aureus clin. isolate VISA, isolated compounds
Description: as §1, §2, §3, §4

[3] = test system: 613 Staph. aureus clin. isolate Met-R; assay: as above; assay type: cell-based, Staphylococcus aureus; settings: for MIC: 613 Staph. aureus clin. isolate Met-R, isolated compounds
Description: as §1, §2, §3, §4

[4] = test system: 819 Staph. aureus Smith; assay: as above; assay type: cell-based, Staphylococcus aureus; settings: for MIC: 819 Staph. aureus Smith, isolated compounds
Description: as §1, §2, §3, §4

[5] = test system: 49 Strep. pyogenes C203; assay: as above; assay type: cell-based, Streptococcus pyogenes; settings: for MIC: 49 Strep. pyogenes C203, isolated compounds
Description: as §1, §2, §3, §4

[6] = test system: 559 Entero. faecalis (isogenic of L 560); assay: as above; assay type: cell-based, Enterococcus faecalis
Description: as §1, §2, §3, §4

[7] = test system: 560 Entero. faecalis VanA; assay: as above; assay type: cell-based, Enterococcus faecalis; settings: for MIC: 560 Entero. faecalis VanA, isolated compounds
Description: as §1, §2, §3, §4

[8] = test system: 568 Entero. faecium (isogenic of L569); assay: as above; assay type: cell-based, Enterococcus faecium
Description: as §1, §2, §3, §4

[9] = test system: 569 Entero. faecium clin. isolate Van-A; assay: as above; assay type: cell-based, Enterococcus faecium; settings: for MIC: 569 Entero. faecium clin. isolate Van-A, isolated compounds
Description: as §1, §2, §3, §4

[10] = test system: 47 E coli SKF12140; assay: as above; assay type: cell-based, Escherichiae coli; settings: for MIC: 47 E coli SKF12140, isolated compounds
Description: as §1, §2, §3, §4

[11] = test system: 145 Candida albicans SKF2270; assay: as above; assay type: cell-based; settings: for MIC: 145 Candida albicans SKF2270, isolated compounds
Description: as §1, §2, §3, §4

[12] = test system: blood cells; assay: Haemolytic potential on blood cells (isolated compounds); assay type: cell-based, rats
Description: The ramoplanin-like amide derivatives were dissolved at 40.000 mcg/ml in dimethyl sulfoxide (DMSO) and then diluted 1:5 in 0.1% peptone Difco Laboratories, (Detroit, Mich., USA) plus 0.9% NaCl (PBS).
(§5) Whole blood sample was obtained from the dorsal aorta of rats and diluted 1:100 in PBS before the test.
Group 2—PBS as physiologic haemolysis control
Group 3—saponin (Sigma), solution at 3% in distilled water, as 100% haemolysis control.
(§6) The test groups were diluted 1:5 in blood cells and incubated in water bath at 37° C. for 45 minutes.
(§7) After the incubation time the samples were centrifuged at 2500–3000 g for 10 minutes, and 0.1 ml of each supernatant was diluted in 900 mcl of Drabkin's reagent (Sigma).
(§8) The optical density (OD) of the samples was measured at 540 nm versus a blank preparation of Drabkin's reagent plus 0.1 ml of PBS.
The test was performed in triplicate.
(§9) The percentage of haemolysis was calculate using the formula Δx/Δt×100=% of haemolysis
Δx=mean value of OD540 for each concentration tested (GROUP 1–2)
Δt=mean value of OD540 for 100% haemolysis control (GROUP 3).
(§10) The haemolysis was considered significant when exceeding at least 3 times the haemolytic value of blank control (GROUP 2).

[13] = test system: blood cells; assay: Haemolytic effect (reaction solutions); assay type: cell-based, rats
Description: as §5, §6, §7, §8, §9, §10
as §3, with “haemolytic effect” for “antimicrobial activity in vitro”
The reaction solutions (resulting from the addition of 1M hydrochloric acid as described in Method A) were diluted at 1200 mcg/ml by adding 0.1% peptone Difco Laboratories, (Detroit, Mich., USA) plus 0.9% NaCl (PBS).

[14] = test system: Staphylococcus aureus Smith SA 819; assay: Murine septicaemia, Staphylococcus aureus Smith SA 819 systemic infection; assay type: in vivo; settings: mice, i.p. infection, s.c. treatment, survival to day 7
Description: As an example, therapeutical effectiveness of some representative compounds of formula (Ia) in murine septicaemia caused by intraperitoneally administered Staphylococcus aureus Smith SA 819 was evaluated in comparison with ramoplanin. Vancomycin was chosen as reference drug for the evaluation of in vivo antiinfective activity.
Mice were infected intraperitoneally with Staphylococcus aureus Smith SA 819. Untreated animals died within 24 hours after infection. Groups of eight mice each were treated s.c. with different dose levels of ramoplanin or of each test compound, starting 10–20 min after challenge. Reference drugs was s.c. injected vancomycin.

[15] = test system: methicillin-resistant Staphylococcus aureus SA 613; assay: Murine infection, methicillin-resistant Staphylococcus aureus SA 613; assay type: in vivo; settings: mice, i.p. infection, s.c. treatment, survival to day 7
Description: Mice were infected intraperitoneally with ca 10^7 CFU/mouse of Staphylococcus aureus SA 613. Untreated animals died within 24 hours after infection. Groups of eight mice each were treated iv or s.c. with different dose levels of ramoplanin or each test compound, starting 10–20 minutes after challenge. Ramoplanin and vancomycin were used as reference drugs.

[16] = reaction solutions, +30% bovine serum

Molecule	MIC [1] [µg/mL]	MIC ([2]; +30% bovine serum) [µg/mL]	MIC [2] [µg/mL]	MIC [3] [µg/mL]	MIC ([4]; +30% bovine serum) [µg/mL]	MIC ([4]; MH broth) [µg/mL]	MIC [5] [µg/mL]	MIC ([7]; +30% bovine serum) [µg/mL]	MIC [7] [µg/mL]	MIC ([9]; +30% bovine serum) [µg/mL]	MIC [9] [µg/mL]	MIC [10] [µg/mL]	MIC [11] [µg/mL]	% lyis at 100 mcg/ml [12] [%]	% lysis at 200 mcg/ml [12] [%]	% lysis at 400 mcg/ml [12] [%]	other results
ramoplanin factor A2 [Compound 1]	2	16	1	0.25	4	0.125	<0.03	2	0.06	2	0.125	>32	>32	86.04	100	100	MIC 3797 Staph. aureus clin. isolate VISA Met-R ([1]; reaction solutions, no serum): 2 µg/mL; MIC 3798 Staph. aureus clin. isolate VISA +30% bovine serum [2, 16]: 8 µg/mL; MIC 3798 Staph. aureus clin. isolate VISA ([2]; reaction solutions, no serum): 1 µg/mL; MIC 613 Staph. aureus clin. isolate Met-R ([3]; reaction solutions, no serum): 0.25 µg/mL; MIC 819 Staph. aureus Smith +30% bovine serum [4, 16]: 2 µg/mL; MIC 819 Staph. aureus Smith ([4]; reaction solutions, no serum): ≦0.125 mcg/ml; MIC 49 Strep. pyogenes C203 ([5]; reaction solutions, no serum): ≦0.125 mcg/ml; MIC ([6]; 559 Entero. faecalis (isogenic of L 560), isolated compounds): 0.06 µg/mL; MIC 559 Entero. faecalis (isogenic of L 560) ([6]; reaction solutions, no serum): ≦0.125 mcg/ml; MIC 560 Entero. faecalis VanA +30% bovine serum [7, 16]: 2 µg/mL; MIC 560 Entero. faecalis VanA ([7]; reaction solutions, no serum): ≦0.125 mcg/ml; MIC 568 Entero. faecium (isogenic of L569) ([8]; reaction solutions, no serum): ≦0.125 mcg/ml; MIC 569 Entero. faecium clin. isolate Van-A +30% bovine serum [9, 16]: 2 µg/mL; MIC 569 Entero. faecium clin. isolate Van-A ([9]; reaction solutions, no serum): ≦0.125 mcg/ml; MIC 47 E coli SKF12140 ([10]; reaction solutions): >128 µg/mL; MIC 145 Candida albicans SKF2270 ([11]; reaction solutions): >128 µg/mL; % lysis at 300 mcg/ml ([13]; 300 mcg/ml): 74.39%; % lysis at 600 mcg/m ([13]; 600 mcg/m): 88.87%
CN[C@H](CC(C)C)C(=O)N[C@H]1C(=O)N[C@@H](CC(N)=O)C(=O)N[C@H]2C(=O)N[C@H]3C(=O)N[C@H](C(=O)N[C@H](C(=O)O)c4cc(O)cc(O)c4-c4cc3ccc4O)[C@H](O)c3ccc(c(Cl)c3)Oc3cc2cc(c3O[C@@H]2O[C@H](CO)[C@@H](O)[C@H](O)[C@H]2O[C@H]2C[C@](C)(N)[C@H](O)[C@H](C)O2)Oc2ccc(cc2Cl)[C@H]1O [Vancomycin]																	ED50 [14]: 0.64 mg/kg/dose; ED50 [15]: 8 mg/kg/dose
tetrahydroderivative of ramoplanin factor A1 [Compound 5]	4		2	0.5	4	0.25	<0.03	2	0.06	4	0.125	>32	>32				MIC ([8]; 568 Entero. faecium (isogenic of L569), isolated compounds): 0.25 µg/mL
ramoplanin factor A1 [Compound 35]	1	2	0.5	<0.125	0.5	<0.125	<0.125	0.5	<0.125	1	<0.125	>128	>128	58.99	80.44	92.82	
